Patent publication US10118894B2, “Isoindolinone derivatives useful as antiviral agents” (priority 2014, dated 2018)
pIC50: −log10 of the molar value.

tested on: HIV; assay: MT4 Assay (anti-HIV activity); format: cell-based; conditions: Human immunodeficiency virus 1, MT4, 96 h, read-out: HIV MT4 Assay IC50
Protocol: Antiviral HIV activity and cytotoxicity values for compounds of the invention from Table 1 were measured in parallel in the HTLV-1 transformed cell line MT-4 based on the method previously described (Hazen et al., 2007, In vitro antiviral activity of the novel, tyrosyl-based human immunodeficiency virus (HIV) type 1 protease inhibitor brecanavir (GW640385) in combination with other antiretrovirals and against a panel of protease inhibitor-resistant HIV (Hazen et al., “In vitro antiviral activity of the novel, tyrosyl-based human immunodeficiency virus (HIV) type 1 protease inhibitor brecanavir (GW640385) in combination with other antiretrovirals and against a panel of protease inhibitor-resistant HIV”, Antimicrob. Agents Chemother. 2007, 51: 3147-3154; and Pauwels et al., “Sensitive and rapid assay on MT-4 cells for the detection of antiviral compounds against the AIDS virus”, J. of Virological Methods 1987, 16: 171-185).
Luciferase activity was measured 96 hours later by adding a cell titer glo (Promega, Madison, Wis.). Percent inhibition of cell protection data was plotted relative to no compound control. Under the same condition, cytotoxicity of the compounds was determined using cell titer Glo™ (Promega, Madison, Wis.). IC50s were determined from a 10 point dose response curve using 3-4-fold serial dilution for each compound, which spans a concentration range >1000 fold.
These values are plotted against the molar compound concentrations using the standard four parameter logistic equation: y=((Vmax*x^n)/(K^n+x^n))+Y2

Q: Cc1c(-c2c(C)c3c(c(C)c2[C@H](OC(C)(C)C)C(=O)O)C(=O)N(Cc2ccccc2)C3)cc(F)c2c1CCCO2 (atropisomer, axis not shown; (M)) [Example 5, (S)-2-((M)-2-Benzyl-6-(8-fluoro-5-methylchroman-6-yl)-4,7-dimethyl-3-oxoisoindolin-5-yl)-2-(tert-butoxy)acetic acid] was tested. Which pIC50 did it give?
A: Its pIC50 is 8.30.

Q: How did the pIC50 turn out when Cc1c(-c2c(C)c3c(c(C)c2[C@H](OC(C)(C)C)C(=O)O)C(=O)N(Cc2ccccc2)C3)cc(F)c2c1NCCO2 (atropisomer, axis not shown; (M)) [Example 7, (S)-2-((M)-2-benzyl-6-(8-fluoro-5-methyl-3,4-dihydro-2H-benzo[b][1,4]oxazin-6-yl)-4,7-dimethyl-3-oxoisoindolin-5-yl)-2-(tert-butoxy)acetic acid] was run?
A: The pIC50 was 7.85.

Q: How did the pIC50 turn out when Cc1ccc(-c2c(C)c3c(c(C)c2C(OC(C)(C)C)C(=O)O)C(=O)N(Cc2ccccc2)C3)cc1 (stereo not shown) [Example 1, 2-(2-Benzyl-4,7-dimethyl-3-oxo-6-(p-tolyl)isoindolin-5-yl)-2-(tert-butoxy)acetic acid] was run?
A: The pIC50 was 7.60.

Q: How did the pIC50 turn out when Cc1ccc(-c2c(C)c3c(c(C)c2[C@H](OC(C)(C)C)C(=O)O)C(=O)N(Cc2ccccc2)C3)cc1 [Example 2] was run?
A: Its pIC50 is 7.38.

Q: With Cc1c2c(c(C)c(C(OC(C)(C)C)C(=O)O)c1-c1ccc(Cl)cc1)C(=O)N(Cc1ccccc1)C2 (stereo not shown) [Example 3, 2-(2-benzyl-6-(4-chlorophenyl)-4,7-dimethyl-3-oxoisoindolin-5-yl)-2-(tert-butoxy)acetic acid] as the compound, how does the pIC50 read?
A: Its pIC50 is 7.07.

Q: Cc1c2c(c(C)c(C(OC(C)(C)C)C(=O)O)c1-c1ccc3c(c1)CCCO3)C(=O)N(Cc1ccccc1)C2 (stereo not shown) [Example 4, 2-(2-benzyl-6-(chroman-6-yl)-4,7-dimethyl-3-oxoisoindolin-5-yl)-2-(tert-butoxy)acetic acid] was tested. Which pIC50 did it give?
A: The pIC50 was 7.28.

Q: With Cc1c2c(c(C)c([C@H](OC(C)(C)C)C(=O)O)c1C1=CCC(C)(C)CC1)C(=O)N(Cc1ccccc1)C2 [Example 6, (S)-2-(2-benzyl-6-(4,4-dimethylcyclohex-1-en-1-yl)-4,7-dimethyl-3-oxoisoindolin-5-yl)-2-(tert-butoxy)acetic acid] as the compound, how does the pIC50 read?
A: Its pIC50 is 7.44.
